Results from publication PMC9942120 (iScience, 2023).

Columns and labels:
[1] = target: T1, RTN4 (Homo sapiens, UniProt Q9NQC3); assay: direct LC-MS/MS profiling of modified tryptic peptides; format: cell-based; conditions: covalent at Cys1101; H358 cells, […] AMG510, […] h (methods print […] h)
T1 sequence (Q9NQC3 1-1192): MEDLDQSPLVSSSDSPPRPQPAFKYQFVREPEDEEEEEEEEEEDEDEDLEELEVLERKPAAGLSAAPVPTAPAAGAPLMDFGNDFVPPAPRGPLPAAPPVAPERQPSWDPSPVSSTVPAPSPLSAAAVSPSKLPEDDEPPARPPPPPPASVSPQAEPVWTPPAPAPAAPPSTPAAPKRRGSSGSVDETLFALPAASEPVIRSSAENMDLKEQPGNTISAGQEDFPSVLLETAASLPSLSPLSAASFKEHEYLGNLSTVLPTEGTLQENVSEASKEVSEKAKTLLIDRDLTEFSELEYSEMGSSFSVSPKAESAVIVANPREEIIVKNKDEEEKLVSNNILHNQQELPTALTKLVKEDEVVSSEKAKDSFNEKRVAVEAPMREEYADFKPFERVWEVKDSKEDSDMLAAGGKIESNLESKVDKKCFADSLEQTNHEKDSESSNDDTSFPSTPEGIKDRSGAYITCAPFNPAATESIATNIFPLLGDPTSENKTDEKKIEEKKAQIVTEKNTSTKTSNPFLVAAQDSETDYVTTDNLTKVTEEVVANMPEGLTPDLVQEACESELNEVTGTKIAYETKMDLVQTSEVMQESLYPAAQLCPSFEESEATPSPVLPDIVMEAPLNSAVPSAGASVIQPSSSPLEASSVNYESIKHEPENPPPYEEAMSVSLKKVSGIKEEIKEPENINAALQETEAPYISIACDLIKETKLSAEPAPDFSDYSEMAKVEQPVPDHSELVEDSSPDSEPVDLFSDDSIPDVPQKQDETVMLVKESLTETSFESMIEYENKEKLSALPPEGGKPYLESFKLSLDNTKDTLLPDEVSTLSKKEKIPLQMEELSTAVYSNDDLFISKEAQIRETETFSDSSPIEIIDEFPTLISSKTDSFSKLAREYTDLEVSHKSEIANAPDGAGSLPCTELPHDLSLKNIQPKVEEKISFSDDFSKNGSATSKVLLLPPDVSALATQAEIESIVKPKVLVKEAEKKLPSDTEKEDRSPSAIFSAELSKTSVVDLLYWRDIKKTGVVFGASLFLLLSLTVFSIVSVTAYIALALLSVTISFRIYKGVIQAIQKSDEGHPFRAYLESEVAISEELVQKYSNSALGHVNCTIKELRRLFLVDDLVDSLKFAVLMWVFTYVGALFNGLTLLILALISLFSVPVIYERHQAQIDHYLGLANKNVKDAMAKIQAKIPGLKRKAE

[2] = target: ANXA2 (Homo sapiens, UniProt P07355); assay: as above; format: cell-based; conditions: covalent at Cys9; H358 cells, […] AMG510, […] h (methods print […] h)
Chain of ANXA2 (P07355 2-339): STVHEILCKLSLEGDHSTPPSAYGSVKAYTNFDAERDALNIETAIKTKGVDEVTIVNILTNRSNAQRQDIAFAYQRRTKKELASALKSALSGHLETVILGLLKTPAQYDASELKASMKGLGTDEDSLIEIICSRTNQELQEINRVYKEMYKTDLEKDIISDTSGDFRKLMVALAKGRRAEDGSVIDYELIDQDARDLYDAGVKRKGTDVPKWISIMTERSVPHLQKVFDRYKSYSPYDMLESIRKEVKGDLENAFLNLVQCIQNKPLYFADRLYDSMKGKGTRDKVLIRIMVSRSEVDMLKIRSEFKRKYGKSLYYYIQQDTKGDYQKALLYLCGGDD

With C=CC(=O)N1CCN(c2nc(=O)n(-c3c(C)ccnc3C(C)C)c3nc(-c4c(O)cccc4F)c(F)cc23)[C@@H](C)C1 [AMG510] the “direct LC-MS/MS profiling of modified tryptic peptides” value [1] was “off-targets that were identified in previous studies (RTN4 C1101 and HMOX2 C282)” and the “direct LC-MS/MS profiling of modified tryptic peptides” value [2] was “multifunctional membrane-binding protein (ANXA2 C9)”.
